Experimental findings from PubChem BioAssay (NCI) are described below.

Where “and” joins values, the source holds several entries; their conditions need not be identical. Equal entries are not always repeated.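 96-well plates; 48 h exposure; 5 concentrations. Endpoints by linear interpolation between flanking doses. Not reached: highest tested concentration assigned. Here, GI50 denotes the concentration required for 50% inhibition of growth. At the TGI there is no net growth.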

Some test systems named below: SK-MEL-5 melanoma; SF-268 CNS; COLO 205 colon; HS 578T breast; A498 renal; NCI-H226 lung; A549 NSCLC; HCC-2998 colon.
What all share (experiment): NCI tumour cell line growth inhibition, 48 h

With `O=C(c1ccccc1)c1ccc(O)c2ncccc12`, the GI50 is 4.72 µM with SK-MEL-5 melanoma; 3.11 µM with SF-268 CNS; 23.9 µM with COLO 205 colon; 5.08 µM in the test on HS 578T breast; 9.29 µM in the test on A498 renal; 9.45 µM in the test with NCI-H226 lung. Further, the GI50 in the test on A549 NSCLC is 9.02 µM; in the test on HCC-2998 colon, 16.7 µM. Moreover, the TGI was 26.6 µM in the test with SK-MEL-5 melanoma; above 100 µM in the test on SF-268 CNS; 95.7 µM in the test with COLO 205 colon; 72 µM in the test on HS 578T breast; 27.4 µM in the test with A498 renal; 41.8 µM in the test on NCI-H226 lung. The results for the TGI in the test on A549 NSCLC and in the test on HCC-2998 colon were above 100 µM and 41.1 µM, respectively.
Consider `Cc1cc(S(=O)(=O)Nc2nc3ccccc3[nH]2)c(SCc2ccccc2)cc1Cl`, for which the GI50 was above 100 µM in the test with SK-MEL-5 melanoma; above 100 µM in the test with SF-268 CNS; above 100 µM in the test with COLO 205 colon; 78.1 µM in the test with HS 578T breast; above 100 µM in the test on A498 renal; 43.8 µM in the test with NCI-H226 lung. In addition, the GI50 with A549 NSCLC was above 100 µM; in the test with HCC-2998 colon, 21.4 µM. Moreover, the TGI in the test with SK-MEL-5 melanoma, in the test with SF-268 CNS, in the test on COLO 205 colon, with HS 578T breast, with A498 renal and in the test on NCI-H226 lung was above 100 µM throughout. For the same compound, the TGI with A549 NSCLC and in the test on HCC-2998 colon was above 100 µM each time.
Turning to `COc1ccc(C2CC(c3cccc(OC)c3)=NN2C(=O)c2cc(OC)c(OC)c(OC)c2)cc1` (configuration not stated), the GI50 with SK-MEL-5 melanoma is 0.534 µM; in the test with SF-268 CNS it was 4.09 µM; in the test with COLO 205 colon, 1.19 µM; in the test with HS 578T breast, 1.21 µM; in the test on A498 renal, 1.12 µM; with A549 NSCLC it was 2.25 µM. The GI50 in the test with HCC-2998 colon is 4.27 µM. The TGI was above 40.4 µM with SK-MEL-5 melanoma; above 100 µM in the test with SF-268 CNS; 5.53 µM with COLO 205 colon; 5.37 µM in the test on HS 578T breast; above 100 µM with NCI-H226 lung; above 100 µM in the test with A549 NSCLC. Besides, the TGI in the test on HCC-2998 colon is above 100 µM.
Consider `CC1=C/C(O)CC(=O)Cc2nc(co2)C(=O)N2CCC=C2C(=O)OC(C(C)C)C(C)/C=C\C(=O)NC/C=C\1` (configuration not stated), for which the GI50 with SK-MEL-5 melanoma was 10.3 µM; with SF-268 CNS, 20.9 µM; with COLO 205 colon, 3.09 µM; in the test on HS 578T breast, above 75.8 µM; in the test on A498 renal it was 44.9 µM; in the test on NCI-H226 lung it was above 46.3 µM. Further, the GI50 in the test with A549 NSCLC is 25.1 µM; in the test on HCC-2998 colon, 16.2 µM. Besides, the TGI in the test on SK-MEL-5 melanoma is 29.3 µM and > 100 µM; in the test on SF-268 CNS, 54.4 µM and 43.4 µM; in the test with COLO 205 colon it was 15 µM and 38.9 µM; in the test with HS 578T breast it was > 100 µM and 59.4 µM; in the test with A498 renal, > 84.1 µM and 76.3 µM; in the test with NCI-H226 lung, above 100 µM. Further, the TGI with A549 NSCLC is above 100 µM; with HCC-2998 colon, 31.6 µM and 34.5 µM.
As for `O=C(Nc1nc(-c2ccccc2)cs1)c1cc(O)c(O)c(O)c1`, the GI50 with SK-MEL-5 melanoma is 3.6 µM; in the test on SF-268 CNS, 2.72 µM; in the test with COLO 205 colon, 10.8 µM; in the test on HS 578T breast, 3.37 µM; in the test with A498 renal it was 5.41 µM; in the test with NCI-H226 lung it was 8.08 µM. In addition, the figures for the GI50 with A549 NSCLC and in the test with HCC-2998 colon were 5.62 µM and 10.1 µM, respectively. Also, the TGI with SK-MEL-5 melanoma turned out to be 20.7 µM; in the test with SF-268 CNS, 31.9 µM; in the test with COLO 205 colon it was 30.1 µM; in the test on HS 578T breast it was 83.8 µM; in the test on A498 renal, 28.2 µM; with NCI-H226 lung, 54.8 µM. In addition, the TGI in the test with A549 NSCLC is 51.4 µM; in the test with HCC-2998 colon it was 36.3 µM.
Turning to `NC(=S)N/N=C/c1ccc(OC(=O)COc2ccccc2)cn1`, the GI50 is 3.12 µM in the test on SK-MEL-5 melanoma; 2.95 µM in the test on SF-268 CNS; 33.3 µM in the test with COLO 205 colon; 68.4 µM in the test with HS 578T breast; 14.8 µM with A498 renal; 20.3 µM with NCI-H226 lung. Moreover, the GI50 in the test on A549 NSCLC was 30 µM; in the test on HCC-2998 colon it was 8.37 µM. For the same compound, the TGI in the test on SK-MEL-5 melanoma is 29.1 µM; in the test with SF-268 CNS, above 100 µM; in the test with COLO 205 colon, above 100 µM; in the test with HS 578T breast, above 100 µM; with A498 renal, 81 µM; with NCI-H226 lung, 64 µM. Moreover, the TGI in the test on A549 NSCLC and with HCC-2998 colon was above 100 µM in each case.
Turning to `C[C@@H]1CC[C@@H]2[C@@H]1[C@H](OC(=O)c1ccc3ccccc3c1)[C@]1(C3CCCCC3)C[C@@H](OC(=O)CO)[C@@]2(C)O1`, the GI50 in the test with SK-MEL-5 melanoma was 14 µM; in the test on SF-268 CNS, 0.542 µM; in the test on COLO 205 colon it was 11.2 µM; with HS 578T breast, 0.023 µM; in the test with A498 renal, 0.0191 µM; in the test with NCI-H226 lung it was 11.6 µM. In addition, the GI50 in the test on A549 NSCLC is 8.12 µM; with HCC-2998 colon, 11.8 µM. The TGI in the test on SK-MEL-5 melanoma turned out to be 27.4 µM; in the test on SF-268 CNS it was 19.5 µM; in the test with COLO 205 colon, 24.6 µM; with HS 578T breast, 0.0757 µM; in the test on A498 renal, 0.0679 µM; in the test with NCI-H226 lung, 26.2 µM. The TGI in the test on A549 NSCLC turned out to be 21.7 µM; with HCC-2998 colon, 28.1 µM.
As to `c1ccc2c(-c3cnn4cc(-c5ccc(N6CCNCC6)cc5)cnc34)ccnc2c1`, the GI50 is 1.26 µM in the test with SK-MEL-5 melanoma; 1.43 µM with SF-268 CNS; 1.42 µM in the test on COLO 205 colon; 1.25 µM in the test with HS 578T breast; 1.43 µM in the test on A498 renal; 1.65 µM in the test with NCI-H226 lung. Moreover, the values for the GI50 in the test on A549 NSCLC and with HCC-2998 colon were 0.766 µM and 1.36 µM, respectively. The TGI came out at 2.52 µM in the test with SK-MEL-5 melanoma; 2.8 µM with SF-268 CNS; 2.81 µM in the test on COLO 205 colon; 2.93 µM with HS 578T breast; 2.87 µM in the test on A498 renal; 3.59 µM in the test with NCI-H226 lung. The TGI in the test on A549 NSCLC was found to be 1.99 µM; in the test on HCC-2998 colon, 2.74 µM.
Regarding `Cc1ccc(N(/C=C/C(=O)C(F)(F)F)CC(=O)c2ccc(Cl)c(Cl)c2)cc1`, the GI50 was 5.64 µM in the test with SK-MEL-5 melanoma; 12.5 µM in the test with SF-268 CNS; 10 µM in the test with COLO 205 colon; 2.35 µM in the test on HS 578T breast; 8.05 µM in the test with A498 renal; 14.9 µM with NCI-H226 lung. For the same compound, the GI50 in the test with A549 NSCLC was 9.37 µM; in the test with HCC-2998 colon it was 1.45 µM. In addition, the TGI in the test with SK-MEL-5 melanoma was 19.6 µM; in the test with SF-268 CNS it was 25 µM; in the test on COLO 205 colon, 21.6 µM; in the test with HS 578T breast, 17.1 µM; with A498 renal, 20.9 µM; in the test with NCI-H226 lung, 28.7 µM. The TGI with A549 NSCLC turned out to be 21.3 µM; in the test with HCC-2998 colon, 14.8 µM.
